Format in all cases: cell-based
Experiment [1] addresses T1, hGIPR (Homo sapiens, UniProt P48546).
T1 sequence (P48546 22-466): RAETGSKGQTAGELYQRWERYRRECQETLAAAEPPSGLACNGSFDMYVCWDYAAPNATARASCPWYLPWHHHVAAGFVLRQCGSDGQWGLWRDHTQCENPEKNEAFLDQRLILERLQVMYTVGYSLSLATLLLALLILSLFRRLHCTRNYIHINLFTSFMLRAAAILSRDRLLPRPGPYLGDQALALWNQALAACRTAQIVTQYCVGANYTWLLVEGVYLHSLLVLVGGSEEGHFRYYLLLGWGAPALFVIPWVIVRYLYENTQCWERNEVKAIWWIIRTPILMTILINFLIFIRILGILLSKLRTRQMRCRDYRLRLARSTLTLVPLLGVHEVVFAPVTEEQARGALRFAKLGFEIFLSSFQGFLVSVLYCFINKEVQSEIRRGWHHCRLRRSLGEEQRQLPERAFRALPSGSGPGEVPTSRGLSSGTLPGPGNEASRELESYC
Put plainly: Functional cAMP activity in the presence of 1% HSA. The note with it: read-out: cAMP Rel EC50, hGIPR.

The target in experiment [2] is T2, hGLP-1R (Homo sapiens, UniProt P43220). Put plainly: Functional cAMP activity in the presence of 1% HSA. The settings on record: read-out: cAMP Rel EC50, hGLP-1R.
T2 sequence (P43220 24-463): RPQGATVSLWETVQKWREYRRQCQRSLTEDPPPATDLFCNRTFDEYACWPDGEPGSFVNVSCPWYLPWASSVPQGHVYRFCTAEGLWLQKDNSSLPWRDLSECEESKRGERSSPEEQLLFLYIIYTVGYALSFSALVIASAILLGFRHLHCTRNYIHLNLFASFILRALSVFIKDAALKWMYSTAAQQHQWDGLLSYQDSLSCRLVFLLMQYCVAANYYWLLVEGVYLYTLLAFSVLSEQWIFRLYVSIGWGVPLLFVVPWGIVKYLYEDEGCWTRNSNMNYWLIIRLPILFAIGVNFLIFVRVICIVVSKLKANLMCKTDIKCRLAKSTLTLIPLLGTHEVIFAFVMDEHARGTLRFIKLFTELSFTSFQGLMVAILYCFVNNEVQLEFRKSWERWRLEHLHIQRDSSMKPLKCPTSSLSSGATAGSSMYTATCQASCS
A further experiment concerns the target human GcgR (Homo sapiens, UniProt P47871). The experiment can be described thus: Functional cAMP activity in the presence of 1% HSA. The note with it: read-out: cAMP Rel EC50, hGcgR.
The target in experiment [3] is T1, hGIPR. The experiment can be described thus: Functional cAMP activation in the presence of 0.1% casein (no HSA). The note with it: read-out: Relative cAMP EC50, hGIPR.
Experiment [4] deals with T2, hGLP-1R. The description is as above. The note with it: read-out: Relative cAMP EC50, hGLP-1R.
The target in another experiment is hGcgR (Homo sapiens, UniProt P47871). The experiment is described as above. The note with it: read-out: Relative cAMP EC50, hGcgR.
Chain of hGcgR (P47871 26-477): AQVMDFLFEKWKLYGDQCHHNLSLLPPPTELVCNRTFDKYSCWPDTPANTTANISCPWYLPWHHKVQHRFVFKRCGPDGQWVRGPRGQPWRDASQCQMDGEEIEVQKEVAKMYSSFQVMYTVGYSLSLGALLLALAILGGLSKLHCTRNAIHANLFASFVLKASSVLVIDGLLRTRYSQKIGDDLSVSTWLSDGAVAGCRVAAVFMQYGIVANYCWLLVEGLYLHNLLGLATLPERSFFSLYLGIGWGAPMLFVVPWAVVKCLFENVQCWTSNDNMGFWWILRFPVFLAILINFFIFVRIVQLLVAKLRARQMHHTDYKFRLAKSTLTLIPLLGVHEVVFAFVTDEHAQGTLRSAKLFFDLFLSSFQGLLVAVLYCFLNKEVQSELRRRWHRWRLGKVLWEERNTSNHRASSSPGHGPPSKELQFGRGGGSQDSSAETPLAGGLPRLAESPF
The mark [5] stands for this setting: in the presence of 0.1% casein (no HSA), geometric mean.

Where two headings read alike, the source gives them in different places. Starred links: 1 amine or outer side, 2 acyl side, 3 side chain; linkers in the order of their positions; H or OH if unused. Non-standard residues stand in square brackets, D forms with d. Groups on a side chain read outwards from the residue. No end group written: not given here. *: point of attachment. C20 diacid = O=C(O)CCCCCCCCCCCCCCCCCCC(=O)*; C18 diacid = O=C(O)CCCCCCCCCCCCCCCCC(=O)*; αMePhe(2-F) = C[C@](N)(Cc1ccccc1F)C(=O)O; γGlu = O=C(O)[C@H](CCC(=O)[*:2])N[*:1]; αMe4Pal = C[C@](N)(Cc1ccncc1)C(=O)O; αMeY = C[C@](N)(Cc1ccc(O)cc1)C(=O)O; 4Pal = N[C@@H](Cc1ccncc1)C(=O)O; αMeL = CC(C)C[C@](C)(N)C(=O)O; αMeS = C[C@](N)(CO)C(=O)O; Orn = NCCC[C@H](N)C(=O)O; AEEA = NCCOCCOCC(=O)O; Aib = CC(C)(N)C(=O)O
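Wherever Relative cAMP EC50, hGIPR is given: intracellular cAMP rise after 30 min at 37 °C read by HTRF against a standard curve, scaled between buffer alone (0%) and top control ligand concentration (100%), four-parameter fit.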
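Wherever Relative cAMP EC50, hGLP-1R is given: intracellular cAMP rise after 30 min at 37 °C read by HTRF, normalized between buffer only (0%) and maximal control ligand (100%), four-parameter variable-slope fit.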
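Wherever Relative cAMP EC50, hGcgR is given: intracellular cAMP rise after 30 min at 37 °C, read by HTRF against a cAMP standard curve, scaled from buffer only (0%) to maximal control ligand response (100%).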

Chain of human GcgR (P47871 26-477): as above

As to “H-Y[Aib]QGTFTSD[4Pal]SQ[αMeL]LDKK([AEEA-γGlu-C18 diacid])AQ[αMe4Pal]AFIEWLIEGGPSSGAPPPSGT-NH2 [Example 831]”, the EC50 stood at 38.2 nM on hGIPR [1]; 237 nM on hGLP-1R [2]; 1450 nM on human GcgR; 0.604 nM at hGIPR [3] (setting [5]); 0.672 nM at hGLP-1R [4] (setting [5]); 4.63 nM at hGcgR (setting [5]).
With “H-Y[Aib]QGTFTSDFS[Orn][αMeL]LDKK([AEEA-γGlu-C18 diacid])AQ[Aib]AFIEWLLEGGESSGEPPPSGE-NH2 [Example 123]”, the EC50 on hGIPR [1] amounted to 94.6 nM; on hGLP-1R [2], 1500 nM; on human GcgR, 1740 nM; on hGIPR [3] (setting [5]), 0.531 nM; at hGLP-1R [4] (setting [5]), 4.82 nM; at hGcgR (setting [5]), 4.55 nM.
“H-Y[Aib]QGTFTSDFS[Orn][αMeL]LDKK([AEEA-AEEA-γGlu-C18 diacid])AQ[Aib]AFIEYLLE[dA]GPSSG[4Pal]PPPSG[4Pal]-NH2 [Example 258]”: the EC50 stood at 23.3 nM on hGIPR [1]; 492 nM at hGLP-1R [2]; 1280 nM at human GcgR; 0.154 nM at hGIPR [3] (setting [5]); 2.71 nM on hGLP-1R [4] (setting [5]); 7.15 nM on hGcgR (setting [5]).
Turning to `CC[C@H](C)[C@H](NC(=O)[C@H](CC(C)C)NC(=O)[C@](C)(Cc1ccc(O)cc1)NC(=O)[C@@H](CCC(=O)O)NC(=O)[C@@H](NC(=O)[C@H](Cc1ccccc1)NC(=O)[C@H](CCC(=O)O)NC(=O)C(C)(C)NC(=O)[C@H](C)NC(=O)[C@H](C)NC(=O)[C@H](CCCCNC(=O)COCCOCCNC(=O)CC[C@H](NC(=O)CCCCCCCCCCCCCCCCC(=O)O)C(=O)O)NC(=O)[C@H](CCCN)NC(=O)[C@H](CC(=O)O)NC(=O)[C@H](CC(C)C)NC(=O)[C@](C)(CC(C)C)NC(=O)[C@@H](NC(=O)[C@](C)(CO)NC(=O)[C@H](Cc1ccncc1)NC(=O)[C@H](CC(=O)O)NC(=O)[C@H](CO)NC(=O)[C@@H](NC(=O)[C@](C)(Cc1ccccc1F)NC(=O)[C@@H](NC(=O)CNC(=O)[C@H](CCC(N)=O)NC(=O)C(C)(C)NC(=O)[C@@H](N)Cc1ccc(O)cc1)[C@@H](C)O)[C@@H](C)O)[C@@H](C)CC)[C@@H](C)CC)C(=O)N[C@@H](CCC(=O)O)C(=O)NCC(=O)NCC(=O)N1CCC[C@H]1C(=O)N[C@@H](CO)C(=O)N[C@@H](CO)C(=O)NCC(=O)N[C@@H](CCC(=O)O)C(=O)N1CCC[C@H]1C(=O)N1CCC[C@H]1C(=O)N1CCC[C@H]1C(=O)N[C@@H](CO)C(=O)NCC(=O)N[C@@H](CO)C(N)=O` [Example 707], the half-maximal effective concentration (EC50) was determined as 1.05 nM at hGIPR [1]; 30.6 nM at hGLP-1R [2]; 199 nM on human GcgR; 0.0107 nM on hGIPR [3]; 0.248 nM on hGLP-1R [4]; 1.06 nM at hGcgR.
As for “H-Y[Aib]QGTFTSDYSI[αMeL]LDKQAAK([AEEA-AEEA-γGlu-C20 diacid])QFVNWLLA[Aib]GPSSGEPPPSEG-NH2 [Example 325]”, the EC50 was 82.7 nM on hGIPR [1]; 371 nM on hGLP-1R [2]; 774 nM at human GcgR; 0.351 nM at hGIPR [3] (setting [5]); 1.56 nM at hGLP-1R [4] (setting [5]); 2.43 nM on hGcgR (setting [5]).
Take “Y[Aib]QGTFTSD[4Pal]SQ[αMeL]LDKK([dE-dE-γGlu-C18 diacid])AQ[αMe4Pal]AFIEYLIE[Aib]GPSSGAPPPSGSE-NH2 [Example 925]”: the EC50 is 23 nM at hGIPR [1]; 708 nM at hGLP-1R [2]; 2500 nM on human GcgR; 0.147 nM on hGIPR [3] (setting [5]); 4.19 nM on hGLP-1R [4] (setting [5]); 8.19 nM at hGcgR (setting [5]).
Turning to “H-Y[Aib]QGT[αMePhe(2-F)]TSD[4Pal][αMeS]I[αMeL]LD[Orn]K([γGlu-γGlu-C18 diacid])AQ[αMe4Pal]EFI[dE][αMeY]LVEGGPSSGEPPPSGTGE-NH2 [Example 738]”, the EC50 on hGIPR [1] amounted to 0.64 nM; on hGLP-1R [2], 28.2 nM; at human GcgR, 162 nM; on hGIPR [3], 0.00991 nM; at hGLP-1R [4], 0.368 nM; on hGcgR, 1.87 nM.
As to `CC[C@H](C)[C@H](NC(=O)[C@H](Cc1ccccc1)NC(=O)[C@H](CCCN)NC(=O)C(C)(C)NC(=O)[C@H](CCC(N)=O)NC(=O)[C@H](C)NC(=O)[C@H](CCCCNC(=O)[C@H](CCC(=O)O)NC(=O)CC[C@H](NC(=O)CCCCCCCCCCCCCCCCC(=O)O)C(=O)O)NC(=O)[C@H](CCCN)NC(=O)[C@H](CC(=O)O)NC(=O)[C@H](CC(C)C)NC(=O)[C@](C)(CC(C)C)NC(=O)[C@@H](NC(=O)[C@](C)(CO)NC(=O)[C@H](Cc1ccncc1)NC(=O)[C@H](CC(=O)O)NC(=O)[C@H](CO)NC(=O)[C@@H](NC(=O)[C@](C)(Cc1ccccc1F)NC(=O)[C@@H](NC(=O)CNC(=O)[C@H](CCC(N)=O)NC(=O)C(C)(C)NC(=O)[C@@H](N)Cc1ccc(O)cc1)[C@@H](C)O)[C@@H](C)O)[C@@H](C)CC)C(=O)N[C@H](CCC(=O)O)C(=O)N[C@@](C)(Cc1ccc(O)cc1)C(=O)N[C@@H](CC(C)C)C(=O)N[C@@H](CCC(N)=O)C(=O)N[C@@H](CCC(=O)O)C(=O)NCC(=O)NCC(=O)N1CCC[C@H]1C(=O)N[C@@H](CO)C(=O)N[C@@H](CO)C(=O)NCC(=O)N[C@@H](CCC(=O)O)C(=O)N1CCC[C@H]1C(=O)N1CCC[C@H]1C(=O)N1CCC[C@H]1C(=O)N[C@@H](CCC(=O)O)C(=O)NCC(=O)N[C@H](C(=O)N[C@@H](CCC(=O)O)C(=O)N[C@@H](CCC(=O)O)C(=O)N[C@@H](CCC(=O)O)C(N)=O)[C@@H](C)O` [Example 594], the EC50 at hGIPR [1] turned out to be 3.32 nM; on hGLP-1R [2], 49.1 nM; on human GcgR it was 570 nM; at hGIPR [3] it was 0.0541 nM; at hGLP-1R [4], 0.561 nM; on hGcgR, 8.35 nM.
Take “H-Y[Aib]QGT[αMePhe(2-F)]TSD[4Pal][αMeS]I[αMeL]LD[Orn]K([γGlu-Glu-C18 diacid])AQ[Aib][Orn]FI[dE][αMeY]LSEGGPSSGEPPPSGTE-NH2 [Example 565]”: the EC50 at hGIPR [1] amounted to 21.9 nM; at hGLP-1R [2], 204 nM; on human GcgR it was 1770 nM; at hGIPR [3], 0.107 nM; on hGLP-1R [4], 1.24 nM; on hGcgR, 10.3 nM.
For “H-Y[Aib]QGT[αMePhe(2-F)]TSD[4Pal][αMeS]I[αMeL]LD[Orn]K([AEEA-γGlu-C18 diacid])AQ[αMe4Pal]EFI[dE][αMeY]LIEGGPSSGAPPPTGE-NH2 [Example 1142]”, the EC50 on hGIPR [1] was 0.748 nM; on hGLP-1R [2], 38 nM; at human GcgR, 203 nM; at hGIPR [3] (setting [5]), 0.00706 nM; on hGLP-1R [4] (setting [5]), 0.329 nM; on hGcgR (setting [5]) it was 1.34 nM.
With “H-Y[Aib]QGTFTSD[4Pal]SQ[αMeL]LDKK([Glu-Glu-γGlu-C18 diacid])AQ[αMe4Pal]AFIEYLIAGGPSSGAPPPSGEEE-NH2 [Example 1090]”, the EC50 was 27.3 nM at hGIPR [1]; 619 nM at hGLP-1R [2]; 2010 nM at human GcgR; 0.272 nM on hGIPR [3] (setting [5]); 5.44 nM at hGLP-1R [4] (setting [5]); 15.6 nM on hGcgR (setting [5]).
With “H-Y[Aib]QGT[αMePhe(2-F)]TSD[4Pal][αMeS]I[αMeL]LD[Orn]K([γGlu-γGlu-C18 diacid])AQ[αMe4Pal]EFI[dE][αMeY]LIEGGPSSGEPPPSGE-NH2 [Example 1151]”, the EC50 at hGIPR [1] came out at 0.287 nM; on hGLP-1R [2], 40 nM; on human GcgR it was 206 nM; on hGIPR [3] (setting [5]), 0.00339 nM; on hGLP-1R [4] (setting [5]), 0.262 nM; on hGcgR (setting [5]), 1.31 nM.

(Values after US20240270821A1, “GIP/GLP1/GCG TRI-RECEPTOR AGONISTS AND USES THEREOF” (priority 2023, published 2024).)
